According to publication PMC2792609, “Effect of methomyl on hepatic mixed function oxidases in rats” (Indian Journal of Pharmacology, 2008):
Like-named read-outs stand apart in the source and are kept apart here.

Experiments:
Hemoglobin = Hemoglobin content; assay type: in vivo, rat; conditions: for decrease in hemoglobin content: 3 days
Procedure: Group 1 received an equivalent amount of saline and served as control. Animals from group 2, 3, and 4 were given methomyl 1, 2, and 4 mg/kg body weight i.p. respectively, between 8: 00 a.m. and 9:00 a.m., for three consecutive days. […] Animals from group 2, 3, and 4 were injected with 4 mg/kg body weight methomyl for one, three, and five successive days. The volume injected into the rats of body weight 200 g was 1 ml. […]
Hemoglobin was measured using HLS-hemosafe reagent. The color obtained was measured colorimetrically at 530 nm.

old male rats = conditions: cited from earlier work
Serum cholinesterase [1] = biological target: T1, Serum cholinesterase (Rattus norvegicus, UniProt Q9JKC1); experiment: Serum cholinesterase activity; assay type: in vivo; conditions: for depression of acetyl cholinesterase activity: 3 days
T1 construct: from tissue; host or cells: rat serum
Procedure: Adult male rats (weighing 200-230 g) were divided into four groups of six animals each. Group 1 received an equivalent amount of saline and served as control. Animals from group 2, 3, and 4 were given methomyl 1, 2, and 4 mg/kg body weight i.p. respectively, between 8: 00 a.m. and 9:00 a.m., for three consecutive days. In the second set of experiments, adult male rats were divided into four groups. Animals from group 2, 3, and 4 were injected with 4 mg/kg body weight methomyl for one, three, and five successive days. The volume injected into the rats of body weight 200 g was 1 ml. […]
Alanine aminotransferase and aspartate aminotransferase activity was measured using the Reitman and Frankel[12] method. Alkaline phosphatase activity was measured using Span diagnostic kits.[13] Cholinesterase activity was measured using the kinetic test method of Knedel et al.[14]

microsomal protein = assay type: in vivo, rat; conditions: for decrease in hepatic microsomal protein content: 3 days, vs control
Procedure: (§1) Adult male rats (weighing 200-230 g) were divided into four groups of six animals each. Group 1 received an equivalent amount of saline and served as control. Animals from group 2, 3, and 4 were given methomyl 1, 2, and 4 mg/kg body weight i.p. respectively, between 8: 00 a.m. and 9:00 a.m., for three consecutive days. In the second set of experiments, adult male rats were divided into four groups. Animals from group 2, 3, and 4 were injected with 4 mg/kg body weight methomyl for one, three, and five successive days. The volume injected into the rats of body weight 200 g was 1 ml. In another experiment, adult female rats and old male rats (weighing 350-450 g, 8 months old) were divided into two groups of six animals each. Group 2 of each category received methomyl (4 mg/kg body weight, i.p., for three successive days), and group 1 of each category received an equivalent amount of saline and served as the control group.
(§2) The rats were sacrificed by cervical dislocation, 24 hours after the last dose. Their livers were perfused in situ with ice cold 1.15% KCl containing 0.05 mM EDTA, rapidly excised, blotted dry, weighed, minced and homogenized with two volumes of ice cold 0.25 M sucrose solution, in a Potter-Elvehjem type homogenizer. The homogenate was centrifuged at 10,000 × g for 10 min, in a refrigerated centrifuge (REMI C-24). The microsomes were isolated by the procedure described by of Cinti et al.[4] The microsomal pellet was suspended in phosphate buffer (0.1 M, pH 7.4) and the suspension was used for the microsomal enzyme assays. Microsomal protein content was measured by the Biuret method, using bovine serum albumin as the standard.[5]

Serum cholinesterase [2] = biological target: T1, Serum cholinesterase; experiment: Serum cholinesterase activity; assay type: in vivo; conditions: female rats; for Serum cholinesterase: for 3 days; for depression of acetyl cholinesterase activity: 3 days
[3] = system: alanine aminotransferase (SGPT); experiment: Serum alanine aminotransferase (SGPT) activity; assay type: in vivo, rat; conditions: female rats; for SGPT: for 3 days
Serum total protein = assay type: in vivo, rat; conditions: for decrease in total protein content: 3 days
Procedure: as §1

cytochrome P450 = experiment: Hepatic microsomal cytochrome P450 level; assay type: in vivo, rat; conditions: for decrease in cytochrome P450 content: 3 days
Procedure: as §1, §2
The microsomal electron transport components (cytochrome P450 and cytochrome b5) were determined using Hitachi UV-Visible double beam recording spectrophotometer, by the procedure of Omura and Sato.[67] Cytochrome c reductase activity was determined using the method recommended by Masters et al.[8] Aminopyrine N-demethylase activity was assayed according to the procedure described by Schenkman et al.[9] Formaldehyde liberated during N-demethylation was estimated by the procedure described by Nash.[10] Aniline hydroxylase assay was performed using the procedure reported by Govindwar and Dalvi.[11]

[4] = system: aspartate aminotransferase (SGOT); experiment: Serum aspartate aminotransferase (SGOT) activity; assay type: in vivo, rat; conditions: female rats; for SGOT: for 3 days
[5] = female rats, 4 mg/kg body weight i.p., for 3 days
[6] = male rats, 1 mg/kg body weight i.p., for three days
[7] = male rats, 2 mg/kg body weight i.p., for three days
[8] = male rats, 4 mg/kg body weight i.p., for three days
[9] = adult female rats, 4 mg/kg body weight, i.p., three days
[10] = adult male rats, 1 mg/kg i.p., for 3 days
[11] = adult male rats, 2 mg/kg i.p., for 3 days
[12] = adult male rats, 4 mg/kg i.p., for 3 days
[13] = adult rats, 4 mg/kg i.p., 1 day of treatment
[14] = adult rats, 4 mg/kg i.p., 3 days of treatment
[15] = adult rats, 4 mg/kg i.p., 5 days of treatment
[16] = old male rats, 4 mg/kg body weight, i.p., three days

T1 sequence (Q9JKC1 24-597): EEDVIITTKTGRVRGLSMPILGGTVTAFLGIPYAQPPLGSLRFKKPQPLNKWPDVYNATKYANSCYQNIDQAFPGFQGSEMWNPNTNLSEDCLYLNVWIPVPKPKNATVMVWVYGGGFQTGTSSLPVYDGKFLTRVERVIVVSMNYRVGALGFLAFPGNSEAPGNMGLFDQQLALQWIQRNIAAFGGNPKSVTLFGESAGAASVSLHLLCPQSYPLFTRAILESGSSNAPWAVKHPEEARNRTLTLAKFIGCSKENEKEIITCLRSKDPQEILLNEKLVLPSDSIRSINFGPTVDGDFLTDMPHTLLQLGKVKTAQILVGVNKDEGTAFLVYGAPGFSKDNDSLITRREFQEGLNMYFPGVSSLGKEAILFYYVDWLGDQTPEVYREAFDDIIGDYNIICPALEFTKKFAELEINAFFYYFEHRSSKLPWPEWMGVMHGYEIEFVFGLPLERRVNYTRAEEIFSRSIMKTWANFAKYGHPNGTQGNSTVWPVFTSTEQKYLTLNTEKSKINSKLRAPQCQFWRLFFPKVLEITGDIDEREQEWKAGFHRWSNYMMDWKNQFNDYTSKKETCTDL

CNC(=O)ON=C(C)SC [methomyl, S-methyl-N-(methyl carbomyl)-thioacetimidate]
decrease in hemoglobin content (Hemoglobin; female rat, 1 mg/kg i.p.): 21% | decrease in hemoglobin content (Hemoglobin; female rat, 2 mg/kg i.p.): 21% | decrease in hemoglobin content (Hemoglobin; female rat, 4 mg/kg i.p.): 29% | Hemoglobin (Hemoglobin; female rats, 1 mg/kg body weight i.p., for 3 days): 10.06 g/dL | Hemoglobin (Hemoglobin; female rats, 2 mg/kg body weight i.p., for 3 days): 10.00 g/dL | Hemoglobin (Hemoglobin; [5]): 9.06 g/dL | decrease in hemoglobin content (Hemoglobin; male rat, 1 mg/kg i.p.): 16% | decrease in hemoglobin content (Hemoglobin; male rat, 2 mg/kg i.p.): 25% | decrease in hemoglobin content (Hemoglobin; male rat, 4 mg/kg i.p.): 29% | Hemoglobin (Hemoglobin; [6]): 9.60 g/dL | Hemoglobin (Hemoglobin; [7]): 8.60 g/dL | Hemoglobin (Hemoglobin; [8]): 8.10 g/dL | hemoglobin content, hematocrit value, erythrocyte, and leucocyte count (old male rats): Decreased | Serum cholinesterase (Serum cholinesterase [1]; [5]): 844 u/l | depression of acetyl cholinesterase activity (Serum cholinesterase [1]; female rats, 4 mg/kg i.p.): 66% | Serum cholinesterase (Serum cholinesterase [1]; [6]): 1120 u/l | depression of acetyl cholinesterase activity (Serum cholinesterase [1]; male rats, 1 mg/kg i.p.): 15% | Serum cholinesterase (Serum cholinesterase [1]; [7]): 949 u/l | depression of acetyl cholinesterase activity (Serum cholinesterase [1]; male rats, 2 mg/kg i.p.): 28% | Serum cholinesterase (Serum cholinesterase [1]; [8]): 848 u/l | depression of acetyl cholinesterase activity (Serum cholinesterase [1]; male rats, 4 mg/kg i.p.): 35% | Microsomal protein (microsomal protein; [9]): 10.90 mg/g liver | decrease in hepatic microsomal protein content (microsomal protein; adult male rats, 1 mg/kg i.p.): 28% | Microsomal protein (microsomal protein; [10]): 13.53 mg/g liver | decrease in hepatic microsomal protein content (microsomal protein; adult male rats, 2 mg/kg i.p.): 31% | Microsomal protein (microsomal protein; [11]): 12.83 mg/g liver | decrease in hepatic microsomal protein content (microsomal protein; adult male rats, 4 mg/kg i.p.): 19% | Microsomal protein (microsomal protein; [12]): 15.10 mg/g liver | change in microsomal protein (microsomal protein; adult male rats, 4 mg/kg i.p., one, three and five days): No significant change | Microsomal protein (microsomal protein; [13]): 15.77 mg/g liver | Microsomal protein (microsomal protein; [14]): 16.00 mg/g liver | Microsomal protein (microsomal protein; [15]): 12.20 mg/g liver | Microsomal protein (microsomal protein; [16]): 18.80 mg/g liver | Serum cholinesterase (Serum cholinesterase [2]; 1 mg/kg body weight i.p.): 1343 u/l | depression of acetyl cholinesterase activity (Serum cholinesterase [2]; 1 mg/kg i.p.): 46% | Serum cholinesterase (Serum cholinesterase [2]; 2 mg/kg body weight i.p.): 1193 u/l | depression of acetyl cholinesterase activity (Serum cholinesterase [2]; 2 mg/kg i.p.): 52% | SGPT ([3]; 1 mg/kg body weight i.p.): 43.0 u/l | SGPT ([3]; 2 mg/kg body weight i.p.): 46.0 u/l | Increased activity of alanine aminotransferase ([3]; 2 mg/kg i.p., 3 days): 14% | Serum total protein (Serum total protein; [5]): 1.70 g/dL | decrease in total protein content (Serum total protein; female rats, 4 mg/kg i.p.): 23% | Serum total protein (Serum total protein; [6]): 2.02 g/dL | decrease in total protein content (Serum total protein; male rats, 1 mg/kg i.p.): 13% | Serum total protein (Serum total protein; [7]): 1.80 g/dL | decrease in total protein content (Serum total protein; male rats, 2 mg/kg i.p.): 22% | Serum total protein (Serum total protein; [8]): 1.60 g/dL | decrease in total protein content (Serum total protein; male rats, 4 mg/kg i.p.): 30% | Cytochrome P450 (cytochrome P450; [9]): 0.21 nmole/mg protein | decrease in cytochrome P450 content (cytochrome P450; adult male rats, 1 mg/kg i.p., vs control): 34% | Cytochrome P450 (cytochrome P450; [10]): 0.27 nmole/mg protein | decrease in cytochrome P450 content (cytochrome P450; adult male rats, 2 mg/kg i.p., vs control): 34% | Cytochrome P450 (cytochrome P450; [11]): 0.27 nmole/mg protein | decrease in cytochrome P450 content (cytochrome P450; adult male rats, 4 mg/kg i.p., vs control): 19% | decrease in the level of cytochrome P450 (cytochrome P450; adult male rats, 4 mg/kg i.p., five days, vs control): 37% | Cytochrome P450 (cytochrome P450; [12]): 0.33 nmole/mg protein | decrease in the level of cytochrome P450 (cytochrome P450; adult male rats, 4 mg/kg i.p., one day, vs control): 37% | decrease in the level of cytochrome P450 (cytochrome P450; adult male rats, 4 mg/kg i.p., three days, vs control): 42% | Cytochrome P450 (cytochrome P450; [13]): 0.30 nmole/mg protein | Cytochrome P450 (cytochrome P450; [14]): 0.28 nmole/mg protein | Cytochrome P450 (cytochrome P450; [15]): 0.30 nmole/mg protein | decrease in cytochrome P450 (cytochrome P450; old male rat, 4 mg/kg i.p., three days, vs control): 43% | Cytochrome P450 (cytochrome P450; [16]): 0.20 nmole/mg protein | SGOT ([4]; 1 mg/kg body weight i.p.): 43.5 u/l | SGOT ([4]; 2 mg/kg body weight i.p.): 46.6 u/l | Increased activity of aspartate aminotransferase ([4]; 2 mg/kg i.p., 3 days): 26%
